B1: TRAIL: Tumor necrosis factor (TNF)-related apoptosis-inducing ligand, 281 amino acid member of the TNF family of cytokines (protein, UniProt P50591 1-281, looked up)
Tumor necrosis factor ligand …: MAMMEVQGGPSLGQTCVLIVIFTVLLQSLCVAVTYVYFTNELKQMQDKYSKSGIACFLKEDDSYWDPNDEESMNSPCWQVKWQLRQLVRKMILRTSEETISTVQEKQQNISPLVRERGPQRVAAHITGTRGRSNTLSSPNSKNEKALGRKINSWESSRSGHSFLSNLHLRNGELVIHEKGFYYIYSQTYFRFQEEIKENTKNDKQMVQYIYKYTSYPDPILLMKSARNSCWSKDAEYGLYSIYQGGIFELKENDRIFVSVTNEHLIDMDHEASFFGAFLVG

Experiments:
Akt PH domain [1] = molecular target: T1, Akt PH domain (Homo sapiens (Human), UniProt P31749); assay: PH domain translocation assay (GFP fusion, plasma membrane); assay type: cell-based; conditions: PDGF stimulation
Procedure: Cells were transfected with the corresponding GFP-fusion vectors, serum starved overnight, and incubated with 100 μM PITs or PIT-1 is for 2 hr, followed by stimulation with 100 ng/ml PDGF or 250 ng/ml PMA for 5 min. The translocation was analyzed using fluorescent microscope and was quantitated by counting the number of cells with translocated PH domains in five random fields.
To begin characterizing cellular activity of PITs, a PH domain translocation assay was performed, measuring PIP3-induced association of GFP-fused PH domains with the plasma membrane. […] Varnai P et al. (1999) J Biol Chem 274:10983-9. Several PH-domain-containing proteins, which are known to bind PIP3 specifically and efficiently, were examined. […] Oikawa T et al. (2004) Nat Cell Biol 6:420-6.
Target sequence in this assay (P31749 5-108): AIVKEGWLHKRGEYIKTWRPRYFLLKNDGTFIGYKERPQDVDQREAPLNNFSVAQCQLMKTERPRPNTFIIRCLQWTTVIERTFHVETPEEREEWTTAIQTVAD

U87MG cells [2] = assay: Combination with Akt kinase inhibitors in U87MG cells (western blot, ATP assay); assay type: cell-based, human
Procedure: U87MG cells were treated with 100 μM PIT-1, or 10 μM Akt inhibitor VIII (Calbiochem) or Akt inhibitor (Calbiochem), or 100 μM PIT-1 together with 10 μM Akt inhibitor VIII or Akt inhibitor, for 12 hr and then phosphorylation events were evaluated by western blot.

U87MG cells [3] = assay: cells; assay type: cell-based; conditions: for IC50: Homo sapiens, U-87 MG, U87MG cells, 48 hr, ATP assay, read-out: Cell Viability IC50
Procedure: Based on the critical role of PIP3-dependent […] signaling in the regulation of cell survival, the effect of PIT-1 on the cancer cell viability was tested. Cancer cells were seeded into 96-well plates (white plates for ATP assay; black plates for fluorescent assay; clear plates for MTS assay) at the density of 5-10×10^3 cells per well in 100 μl of the appropriate media. Compounds were added at a series of concentrations and incubated for different times. For the ATP assay, a luminescence-based commercial kit (CellTiter-Glo, Promega, Madison, Wis.) was used. Thirty microliters of cell lysis/ATP detection reagent was added to each well, mixed for 10 min at room temperature, and the luminescence was measured using a Wallac Victor 3 plate reader (Perkin-Elmer, Wellesley, Mass.). For the MTS assay, a CellTiter 96 AQueous Non-Radioactive Cell Proliferation Assay Kit (Promega, Madison, Wis., USA) was used. Twenty microliters of the combined MTS/PMS solution was added into each well, incubated for 4 hr at 37° C., and the absorbance at 490 nm was measured using a Wallac Victor 3 plate reader. For the Sytox cell death assay, measuring loss of plasma membrane integrity, cells were incubated with 1 μM Sytox Green reagent (Molecular Probes, Eugene, Oreg.) for 30 min at 37° C. and the fluorescence intensity was measured using Wallac Victor 3 plate reader with excitation at 485 nm and emission at 545 nm. Next, 5 μl of 20% (v/v) Triton X-100 solution was added to each well and incubated for 1 hr at 37° C., and the signal was measured again. The ratio of values (percentage of dead cells in each well) before and after Triton X-100 treatment was calculated and normalized to the relevant controls not subjected to the cytotoxic stimuli. IC50 values were determined using Origin6 software (MicroCal, LLC, Northampton, Mass.).
To measure induction of cell death by PIT-1 derivatives, U87MG cells were incubated with PITs (1.56-300 μM) for 48 hr. Cell viability was determined using ATP assay.

Akt PH domain [4] = molecular target: T1, Akt PH domain; assay: Fluorescence polarization (FP) PIP3/Akt PH domain binding assay; conditions: for IC50: 15 nM TMR-conjugated PIP3, PITs 6.25-200 μM, 30 min
Description: (§1) In order to identify compounds that disrupt the interaction between PIP3 and PH domains, a high-throughput fluorescence polarization (FP)-binding assay was developed using recombinant 1-123 amino acid N-terminal fragment of human Akt1 (also referred to herein simply as Akt), encompassing the PH domain (PH123 protein), and fluorescent […] PIP3 molecule. The amino acid sequence of human Akt1 is publicly available as, for example, GenBank Accession No. NP_001014432.1 (SEQ ID NO:1), and the corresponding DNA sequence is publicly available as, for example, GenBank Accession No. NM_001014432. Briefly, 5 μM recombinant GST fusion proteins containing 1-123 a.a. N-terminal fragment of human Akt1 (PH 123) or 100 nM 441-551 a.a. region of human PDK1 were incubated with 15 nM TMR-labeled PIP3, PIP2, or PIP5 in buffer containing 50 mM Tris-HCl (pH 7.5), 150 mM NaCl, and 5 mM b-ME for 15 min at room temperature in the dark. FP values were determined using Wallac Victor 3 plate reader. For the primary screen, 50,000 diverse small molecules from Harvard Institute of Chemistry and Cell Biology were screened (iccb.med.harvard.edu). Incubations were carried out for 1 hr. For secondary assays, PIT compounds were added at various concentrations (6.25, 12.5, 25, 50, 100, 150 and 200 μM), followed by a 30 min incubation. The inhibition rates were calculated as inhibition rate=[1−(compound-treated group/control group)]×100%, and IC50 value was determined using Origin6 software (MicroCal, LLC, Northampton, Mass.).
Target sequence in this assay (P31749 1-123): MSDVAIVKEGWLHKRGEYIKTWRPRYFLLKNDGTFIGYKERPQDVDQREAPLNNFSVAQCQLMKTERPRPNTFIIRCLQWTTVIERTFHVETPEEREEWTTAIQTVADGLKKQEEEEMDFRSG

PDK1 PH domain = PDK1 PH domain (Homo sapiens (Human), UniProt O15530); assay: FP PIP3/PDK1 PH domain binding assay; conditions: 15 nM TMR-conjugated PIP3, 100 nM PDK1 PH domain, 30 min
Description: as §1

GRP1 PH domain = GRP1 PH domain (Homo sapiens, UniProt O43739); assay: FP PIP3/GRP1 PH domain binding assay; conditions: 15 nM TMR-conjugated PIP3, 100 nM GRP1 PH domain, 30 min
PI3K-PDK1-Akt pathway = assay: PIP3-regulated phosphorylation events in U87MG cells; assay type: cell-based, human
Procedure: The effect of PIT-1 on PIP3-mediated signaling was examined in U87MG glioblastoma cells, which show elevated basal levels of PIP3 due to the loss of PTEN. Pore N et al. (2003) Cancer Res 63:236-41.

[5] = Solubility (aqueous, cell media); assay type: physicochemical; conditions: 300 μM unencapsulated
Description: The size of the DM-PIT-1-loaded micelles was about 15 nm with a narrow size distribution.

4T1 breast tumor = assay: Syngeneic 4T1 breast cancer growth in BALB/c mice; assay type: in vivo
Procedure: The effect of intravenous (i.v.) administration of both unencapsulated DM-PIT-1 in PBS and DM-PIT-1-M on the syngeneic 4T1 breast cancer growth in BALB/c mice was examined. 4T1 metastatic breast cancer cells were first cultured in vitro in DMEM medium containing 10% FBS and antibiotics. After re-suspension in PBS, the 4T1 cancer cells (8×10^4) were injected s.c. into axillary regions of BALB/c mice. The treatment with PIT-1 began on day 11 after inoculation of tumor cells, i.e., when tumors were palpable, but before tumors are precisely measurable (˜50 mm^3). Working solutions of all PIT-1-formulations were made in sterile 0.9% NaCl before injection into mice. […] If the tumor size reached approx. 1000 mm^3, the mice were euthanized using carbon dioxide (CO2) prior to cervical dislocation. Seven mice per group were used. The tumor volume (V) was measured every two days by microcaliper for 8 days. Tumor volume was calculated according to the formula (α×b^2)/2, where α is the longest and b is the shortest diameter of tumor, respectively. Tumor tissues were fixed in phosphate-buffered formalin, embedded in paraffin, cut in 4 μm thickness, and applied to slides. The slides were deparaffinized in xylenes using three changes for 5 min each, and hydrated gradually through graded alcohols: 100% ethanol twice for 10 min each, 95% ethanol twice for 10 min each, and then deionized water for 1 min with stirring. For antigen unmasking, slides were placed in a container, covered with 10 mM sodium citrate buffer, pH 6.0, and heated in a convection steamer for 1 hr. The slides were washed in deionized water three times for 2 min each, blocked with 5% normal goat blocking serum for 30 min, incubated with goat anti-CD31 primary antibody for 1 hr, and incubated with an Alexa Fluor 488-conjugated secondary antibody for 30 min. The slides were analyzed and photographed using a fluorescent microscope. TUNEL staining was performed using FragEL kit according to manufacturer's instructions (Calbiochem).

U87MG cells [6] = assay: Sensitization of U87MG cells to TRAIL, ATP assay; assay type: cell-based, human
Procedure: FIG. 10 is a bar graph depicting that PITs, as well as Akt inhibitor VIII, sensitize U87MG cells to killing by TRAIL. U87MG cells were incubated with 50 μM PIT-1, PIT-2, PIT-1i-1 or 10 μM Akt inhibitor VIII in the presence or absence of 10 ng/ml TRAIL for 48 hr, followed by cell viability analysis using ATP assay.
Upregulation of PI3K/Akt signaling is an important mechanism of chemoresistance of cancer cells. Blume-Jensen P et al. (2001) Nature 411:355-65; Osaki M et al. (2004) Apoptosis 9:667-76. […] Puduvalli V K et al. (2005) Apoptosis 10:233-43 TRAIL represents a particularly promising anti-cancer agent due to its intrinsic selectivity towards cancer cells which is associated with the expression of the decoy receptors by many (but not all) normal cells. Abe K et al. (2000) Ann NY Acad Sci 926:52-63. […] Oka N et al. (2005) Cancer Res 65:7546-53.

Chain of PDK1 PH domain (O15530 441-551): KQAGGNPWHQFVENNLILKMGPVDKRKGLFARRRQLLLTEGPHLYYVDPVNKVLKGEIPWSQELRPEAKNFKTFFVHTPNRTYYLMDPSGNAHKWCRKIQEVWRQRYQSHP

Molecule	IC50 (U87MG cells [3]) [µM]	Akt potency and selectivity compared to PIT-1 (Akt PH domain [4])	IC50 (Akt PH domain [4]) [µM]	melting point [°C]	IC50 (PDK1 PH domain) [µM]	IC50 (GRP1 PH domain) [µM]	also measured
CCN(CC)CCCCN1c2ccccc2Oc2ccc(Cl)cc21 [Akt inhibitor X]							plasma membrane translocation of Akt PH domain (Akt PH domain [1]): Neither Akt inhibitor X nor allosteric inhibitor VIII blocked membrane translocation; combination of Akt inhibitors VIII and X (U87MG cells [2]): no additive effect
Cc1cc(C)cc(C(=O)NC(=S)Nc2cc(C(F)(F)F)ccc2O)c1 [PIT-4, N-(2-Hydroxy-5-(trifluoromethyl)phenylcarbamothioyl)-3,5-dimethylbenzamide]	20.7 ± 3.3	improved Akt potency and selectivity compared to PIT-1	22.6 ± 3	208 to 209	> 200	> 200	
Cc1cc(C)cc(C(=O)NC(=S)Nc2c(O)cc(C(F)(F)F)cc2C(F)(F)F)c1 [PIT-5, N-(2-Hydroxy-4,6-bis(trifluoromethyl)phenylcarbamothioyl)-3,5-dimethylbenzamide]	18.8 ± 1.7	improved Akt potency and selectivity compared to PIT-1	20.8 ± 2.5	167 to 168	> 200	> 200	
Cc1cc(C)cc(C(=O)NC(=S)Nc2cc(-c3ccccc3)ccc2O)c1 [PIT-7, N-(4-Hydroxybiphenyl-3-ylcarbamothioyl)-3,5-dimethylbenzamide]	6.6 ± 0.3		13.4 ± 2.1		52.3 ± 2.3	> 200	cytotoxicity / reduction of cancer cell viability relative to other PITs (U87MG cells [3]): strongest activity; PI3K-PDK1-Akt signaling in U87MG cells (PI3K-PDK1-Akt pathway): strongest activity
Cc1cc(C)cc(C(=O)NC(=S)Nc2c(O)cc(C)c(Cl)c2C)c1 [PIT-3, N-(3-Chloro-6-hydroxy-2,4-dimethylphenylcarbamothioyl)-3,5-dimethylbenzamide]	12.4 ± 0.9	improved Akt potency and selectivity compared to PIT-1	17.5 ± 1.6	185 to 186	107 ± 3.9	> 200	
Cc1cc(C)cc(C(=O)NC(=S)Nc2cc([N+](=O)[O-])ccc2O)c1 [DM-PIT-1]	33.9 ± 2.2		27.1 ± 3.2		80.5 ± 3.1	35.5 ± 3.8	activity compared to PIT-1 (U87MG cells [3]; cell death in U87MG cells, cell migration, PI3K-PDK1-Akt signaling): increased activity in these assays compared to PIT-1; precipitation in cell media [5]: significant precipitation; reduction of tumor volume compared to control (4T1 breast tumor; day 8, 0.4 mg/kg/day i.v.): 58.1%; tumor volume (4T1 breast tumor; day 8, 0.4 mg/kg/day i.v.): 380±52.3 mm^3; tumor growth compared to control (4T1 breast tumor; i.v. daily 8 days, DM-PIT-1 0.4 mg/kg, DM-PIT-1-M 1 mg/kg, P<0.01): significantly attenuated tumor growth; tumor angiogenesis, CD31 loci (4T1 breast tumor; mouse, in vivo): marked decrease in cancer angiogenesis
Cc1cc(C)cc(C(=O)NC(=S)Nc2c(O)cc(C)c(Br)c2C)c1 [PIT-6, N-(3-Bromo-6-hydroxy-2,4-dimethylphenylcarbamothioyl)-3,5-dimethylbenzamide]	12.6 ± 2.1	improved Akt potency and selectivity compared to PIT-1	18.1 ± 3.1	164.5 to 166	> 200	> 200	
B1							sensitivity of U87MG cells to TRAIL alone (U87MG cells [6]): entirely resistant

Source: patent publication US8628961B2, “Small molecule antagonists of phosphatidylinositol-3,4,5-triphosphate (PIP3) and uses thereof” (Tufts University, priority 2010, dated 2014)
